Results taken from patent US7780873B2, “Bioactive complexes compositions and methods of use thereof” (Texas A&M University System, priority 2004, dated 2010).
Like-named read-outs stand apart in the source and are kept apart here.

Assays:
[1] = rat duodenal infusion, cited from earlier work
[2] = Lipid oxidation of O/W Menhaden oil-based emulsions; format: physicochemical; conditions: gallic acid alone or with coenzyme Q10; emulsified with egg yolk PC; pH 6.0; GC
[3] = test system: human promyelocytic leukemia HL-60 cells; conditions: cited from earlier work
[4] = from emulsions containing corn oil

SMILES | average recovery in the lymph [1, 4] [%] | average recovery in the lymph ([1]; from olive oil emulsion) [%] | pro-/antioxidative properties of control samples [2] | apoptotic cell death [3]
CC(C)=CCC/C(C)=C/C=C/C(C)=C/C=C/C(C)=C/C=C/C=C(C)/C=C/C=C(C)/C=C/C=C(\C)CCC=C(C)C [LYC, lycopene] | 2.5 | 6 | – | –
O=C(O)c1cc(O)c(O)c(O)c1 [gallic acid] | – | – | prooxidative properties | induced apoptotic cell death
CC1=C(/C=C/C(C)=C/C=C/C(C)=C/C=C/C=C(C)/C=C/C=C(C)/C=C/C2=C(C)C(=O)[C@@H](O)CC2(C)C)C(C)(C)C[C@H](O)C1=O [astaxanthin] | 13 | 20 | – | –
